Assay results reported in US20230255877A1, “COMPOSITION FOR IMPROVING SKIN COMPRISING STEAMED CITRUS PEEL EXTRACT AS ACTIVE INGREDIENT” (LG HOUSEHOLD & HEALTH CARE LTD., priority 2022, published 2023).

Assays:
[1] = test system: Raw264.7 cells; assay: NO production inhibition in lipopolysaccharide-treated Raw264.7 cells (GRIESS reagent); format: cell-based
Experimental: In order to confirm the anti-inflammatory effect of the citrus peel extracts, NO production inhibition rate was measured after the extracts were untreated, steamed for 30 minutes, or steamed for 8 hours. In order to culture Raw264.7 cells, a mixture of DMEM (Dulbecco's Modified Eagle's Medium) and FBS (Fetal Bovine Serum) was used as a basic medium, and the Raw264.7 cells were seeded into a 24-well plate at a concentration of 1 to 2×10^5 cells/mL and cultured for 24 hours. The medium was removed and the cells were starvated in serum-free medium for 12 hours, and thereafter, the DMSO lysate of each extract was treated so that the concentration was 200 ppm, and after 30 minutes, lipopolysaccharide was added at a concentration of 500 ng/ml and cultured for 18 hours. L-NMMA, a positive control, was treated at 20 ppm. After completion of the culture, the supernatant was taken and transferred to a 96-well plate, reacted at room temperature by adding the GRIESS reagent, and the absorbance at 540 nm was measured using an ELISA reader. The amount of NO inhibited compared to the control group was calculated as NO production inhibition rate (%), and the average value was calculated after the experiment was performed three times.
In order to identify the cause of the change in anti-inflammatory efficacy among the steamed citrus peel extract components, the NO production inhibition rates of hesperidin, a flavonoid glycone, and hesperetin, a a flavonoid aglycone, were compared (Table 13)

[2] = test system: human dermal fibroblasts; assay: Collagen synthesis promotion in human dermal fibroblasts (procollagen 1α1 ELISA); format: cell-based
Experimental: In order to confirm the collagen synthesis promoting effect of the citrus peel extracts, the amount of additional collagen production was measured after the extracts were untreated, steamed for 30 minutes, or steamed for 8 hours. In order to culture human dermal fibroblasts, a mixture of DMEM and FBS was used as a basic medium, and the skin fibroblasts were seeded into a 48-well plate at a concentration of 2 to 5×10^4 cells/mL and cultured for 24 hours. The medium was removed, and the DMSO lysate of each extract was treated in serum-free medium so that the concentration was 100 ppm, and cultured for 24 hours. A positive control that promotes collagen synthesis was treated with TGF-β to a concentration of 5 ppb. The cell culture solution was taken and the synthesized collagen was measured using the Human procollagen 1α1 duoset ELISA Kit (R&D Systems) and ELISA reader. A calibration curve was prepared by measuring the isolated and purified collagen at concentrations of 0.25, 0.5, 1, 2, 4, and 8 ng/mL, and based on the results, the amount of collagen (Type I collagen) produced in the DMSO lysate of the citrus peel extracts was calculated. The amount of collagen produced compared to the control group (DMSO) was calculated as collagen production rate (%), and the average value was calculated after the experiment was performed three times (Table 14).
In order to identify the cause of the change in collagen synthesis promoting efficacy among the steamed citrus peel extract components, the amount of additional collagen production of hesperidin, a flavonoid glycone, and hesperetin, a flavonoid aglycone, was compared (Table 15).

Molecule: COc1ccc([C@@H]2CC(=O)c3c(O)cc(O)cc3O2)cc1O [Hesperetin, hesperetin]
- inhibition at 0.1 ppm ([1]; Mus musculus, RAW264.7, 0.1 ppm, read-out: NO Production Inhibition Rate): -3%
- inhibition at 1 ppm ([1]; Mus musculus, RAW264.7, 1 ppm, read-out: NO Production Inhibition Rate): 2.6%
- inhibition at 10 ppm ([1]; Mus musculus, RAW264.7, 10 ppm, read-out: NO Production Inhibition Rate): 8.1%
- inhibition at 20 ppm ([1]; Mus musculus, RAW264.7, 20 ppm, read-out: NO Production Inhibition Rate): 35.6%
- Additional Collagen Production Rate ([2]; 0.1 ppm): 17.0%
- Additional Collagen Production Rate ([2]; 1 ppm): 16.8%

Molecule: COc1ccc([C@@H]2CC(=O)c3c(O)cc(O[C@@H]4O[C@H](CO[C@@H]5O[C@@H](C)[C@H](O)[C@@H](O)[C@H]5O)[C@@H](O)[C@H](O)[C@H]4O)cc3O2)cc1O [Hesperidin, hesperidin]
- NO Production Inhibition Rate ([1]; 0.1 ppm): −5.5%
- NO Production Inhibition Rate ([1]; 1 ppm): 0.6%
- NO Production Inhibition Rate ([1]; 10 ppm): 1.8%
- NO Production Inhibition Rate ([1]; 20 ppm): 2.4%
- Additional Collagen Production Rate ([2]; 0.1 ppm): −0.2%
- Additional Collagen Production Rate ([2]; 1 ppm): 0.2%

Molecule: CNC(=N)NCCC[C@H](N)C(=O)O [L-NMMA]
- NO Production Inhibition Rate ([1]; positive control, 20 ppm, Table 12): 55.1%
- NO Production Inhibition Rate ([1]; positive control, Table 13): 51.3%

Molecule: TGF-β: positive control that promotes collagen synthesis
- Additional Collagen Production Rate ([2]; positive control, 5 ppb, Table 14): 25.2%
- Additional Collagen Production Rate ([2]; positive control, Table 15): 23.7%
